The target of the assay is T1, STARD1 (StAR), STARD1^S195E, residues 66-285 (Homo sapiens, UniProt P49675, S195E).
T1 sequence (P49675 66-285 S195E): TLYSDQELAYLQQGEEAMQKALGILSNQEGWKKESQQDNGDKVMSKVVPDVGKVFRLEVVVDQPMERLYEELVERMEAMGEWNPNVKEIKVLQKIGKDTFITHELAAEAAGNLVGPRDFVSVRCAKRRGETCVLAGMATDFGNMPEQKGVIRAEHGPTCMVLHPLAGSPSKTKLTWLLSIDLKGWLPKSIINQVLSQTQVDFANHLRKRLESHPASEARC
Put plainly: NBD fluorescence titration, quadratic fit. It counts as binding.

Our source for the Kd values is publication doi:10.1101/116368v1 (biorxiv, 2017).

`CC(Nc1ccc([N+](=O)[O-])c2nonc12)[C@H]1CC[C@H]2[C@@H]3CC=C4C[C@@H](O)CC[C@]4(C)[C@H]3CC[C@]12C` (some centres unmarked) [20NP, 20-((NBDamino)-pregn-5-en-3-ol] yielded a Kd of 26 ± 8 nM.
As to `CC(C)CCC[C@@H](C)[C@H]1CC[C@H]2[C@@H]3CCC4CC(Nc5ccc([N+](=O)[O-])c6nonc56)CC[C@]4(C)[C@H]3CC[C@]12C` (some centres unmarked) [3NC, 3-(NBDamino)-cholestane], the dissociation constant Kd stood at 302 ± 29 nM.

In general, Kd refers to the equilibrium constant for the complex coming apart. Low readings indicate higher affinity, high ones lower affinity.
